Tests used:
[1] = test system: HepG2 cells; experiment: In vitro antiproliferative MTT assay, HepG2 cells; format: cell-based, human; conditions: Homo sapiens, 72 h, mean ± SD (n = 3), read-out: IC50 (antiproliferative activity against HepG2 cells)
Experimental: HepG2, Sk-Hep-1, Huh-7, Hep3B and L-02 cells were purchased from Nanjing Key Gen Biotech Co. Ltd. (Nanjing, China). The cytotoxicity of test compounds was determined using an MTT assay. Briefly, the cell lines were incubated at 37 °C in a humidified 5% CO2 incubator for 24 h in 96-microwell plates. After medium removal, 100 μL of culture medium with 0.1% DMSO containing test compounds at different concentrations was added to each well and incubated at 37 °C for another 72 h. The MTT (5 mg/mL in PBS) was added and incubated for another 4 h, the optical density was detected with a microplate reader at 490 nm. The IC50 values were calculated according to the dose-dependent curves. All the experiments were repeated in at least three independent experiments.

IC50 [1] [µM]	melting point [°C]	SMILES
1.47 ± 0.19	165 to 167	CCCCCCCCc1c2[n+](cc3c(OCCCCCCN4CCN(C)CC4)c(OC)ccc13)CCc1cc3c(cc1-2)OCO3.[Br-] [Compound 6h, 10-Methoxy-9-((6–(4-methylpiperazin-1-yl)hexyl)oxy)-13-octyl-5,6-dihydro-[1,3]dioxolo[4,5-g]isoquinolino[3,2-a]isoquinolin-7-ium bromide]
1.28 ± 0.11	135 to 137	CCCCCCCCc1c2[n+](cc3c(OCCCCCCCCCCN4CCOCC4)c(OC)ccc13)CCc1cc3c(cc1-2)OCO3.[Br-] [Compound 6l, 10-Methoxy-9-((10-morpholinodecyl)oxy)-13-octyl-5,6-dihydro-[1,3]dioxolo[4,5-g]isoquinolino[3,2-a]isoquinolin-7-ium bromide]
1.44 ± 0.13	142 to 144	CCCCCCCCc1c2[n+](cc3c(OCCCCCCCCCCN4CCCCC4)c(OC)ccc13)CCc1cc3c(cc1-2)OCO3.[Br-] [Compound 6m, 10-Methoxy-13-octyl-9-((10-(piperidin-1-yl)decyl)oxy)-5,6-dihydro-[1,3]dioxolo[4,5-g]isoquinolino[3,2-a]isoquinolin-7-ium bromide]
6.25 ± 0.56	167 to 169	CCCCCCCCc1c2[n+](cc3c(OCCCN4CCOCC4)c(OC)ccc13)CCc1cc3c(cc1-2)OCO3.[Br-] [Compound 6c, 10-Methoxy-9–(3-morpholinopropoxy)-13-octyl-5,6-dihydro-[1,3]dioxolo[4,5-g]isoquinolino[3,2-a]isoquinolin-7-ium bromide]
4.75 ± 0.24	149 to 151	CCCCCCCCc1c2[n+](cc3c(OCCCCCCN(CC)CC)c(OC)ccc13)CCc1cc3c(cc1-2)OCO3.[Br-] [Compound 6d, 9-((6-(Diethylamino)hexyl)oxy)-10-methoxy-13-octyl-5,6-dihydro-[1,3]dioxolo[4,5-g]isoquinolino[3,2-a]isoquinolin-7-ium bromide]
0.81 ± 0.08	147 to 149	CCCCCCCCc1c2[n+](cc3c(OCCCCCCCCN4CCOCC4)c(OC)ccc13)CCc1cc3c(cc1-2)OCO3.[Br-] [Compound 6i, 10-Methoxy-9-((8-morpholinooctyl)oxy)-13-octyl-5,6-dihydro-[1,3]dioxolo[4,5-g]isoquinolino[3,2-a]isoquinolin-7-ium bromide]
1.64 ± 0.13	132 to 134	CCCCCCCCc1c2[n+](cc3c(OCCCCCCN4CCCCC4)c(OC)ccc13)CCc1cc3c(cc1-2)OCO3.[Br-] [Compound 6g, 10-Methoxy-13-octyl-9-((6-(piperidin-1-yl)hexyl)oxy)-5,6-dihydro-[1,3]dioxolo[4,5-g]isoquinolino[3,2-a]isoquinolin-7-ium bromide]

The next lines start with the molecule.

SMILES	IC50 [1] [µM]	melting point [°C]
COc1ccc2c(Cc3ccccc3)c3[n+](cc2c1OC)CCc1cc2c(cc1-3)OCO2 [Compound 3a, 13-Benzyl-9,10-dimethoxy-5,6-dihydro-[1,3]dioxolo[4,5-g]isoquinolino[3,2-a]isoquinolin-7-ium bromide]	> 50	–
CCCCCCc1c2[n+](cc3c(OC)c(OC)ccc13)CCc1cc3c(cc1-2)OCO3 [Compound 3b, 13-Hexyl-9,10-dimethoxy-5,6-dihydro-[1,3]dioxolo[4,5-g]isoquinolino[3,2-a]isoquinolin-7-ium chloride]	6.14 ± 0.57	–
CCCCCCCCCCCCc1c2[n+](cc3c(OC)c(OC)ccc13)CCc1cc3c(cc1-2)OCO3 [Compound 3e, 13-Dodecyl-9,10-dimethoxy-5,6-dihydro-[1,3]dioxolo[4,5-g]isoquinolino[3,2-a]isoquinolin-7-ium chloride]	4.24 ± 0.44	–
CCCCCCCCCCc1c2[n+](cc3c(OC)c(OC)ccc13)CCc1cc3c(cc1-2)OCO3 [Compound 3d, 13-Decyl-9,10-dimethoxy-5,6-dihydro-[1,3]dioxolo[4,5-g]isoquinolino[3,2-a]isoquinolin-7-ium chloride]	4.45 ± 0.34	–

Reference: article PMC9467586, “Development of novel 9-O-substituted-13-octylberberine derivatives as potential anti-hepatocellular carcinoma agents” (Journal of Enzyme Inhibition and Medicinal Chemistry, 2022)
